Reference: patent US11246866B2, “Solid pharmaceutical compositions for treating HCV” (AbbVie Inc., priority 2015, dated 2022)

Experiment: Single-dose crossover bioavailability study of Compound 1/Compound 2 mini-tablets
Type: in vivo, human
Details: for effect of administration with food on bioavailability: co-formulated mini-tablets, solid dispersion form, with food vs fasting; for t1/2: Compound 1, fasting, harmonic mean, N = 14
Description: In comparison, when administered with food, the mini-tablets provided an AUC that was only 5% lower than that provided by the regular tablets. […] All of the reference AUCs of the regular tablets were measured under fasting conditions. 14 subjects were enrolled in this study and dosed with co-formulated Compound 1/Compound 2 in mini-tablets. One subject spilled 4 mini-tablets (out of 100-150 total mini-tablets) during dosing of Period 2 (Regimen G) and was not excluded from the analysis. The mini-tablets were prepared according to a process similar to that described in Example 2. [table] [table]

| Structure (SMILES) | effect of administration with food on bioavailability | AUC higher than that provided by regular tablets (mini-tablets containing 120 mg Compound 2, with food, vs three regular tablets under fasting conditions) [%] | AUC lower than that provided by regular tablets (mini-tablets containing 120 mg Compound 2, without food, vs three regular tablets under fasting conditions) [%] | t1/2 (Regimen F: mini-tablets 200 mg/120 mg) [h] | t1/2 (Regimen J: two 100 mg Compound 1 tablets and three 40 mg Compound 2 tablets) [h] | AUC lower than that provided by regular tablets (mini-tablets containing 200 mg Compound 1, with food, vs two regular tablets under fasting conditions) [%] | AUC lower than that provided by regular tablets (mini-tablets containing 200 mg Compound 1, without food, vs two regular tablets (same amount, same solid dispersion) under fasting conditions) [%] |
| --- | --- | --- | --- | --- | --- | --- | --- |
| COC(=O)N[C@H](C(=O)N1CCC[C@H]1c1nc2cc([C@H]3CC[C@H](c4cc5nc([C@@H]6CCCN6C(=O)[C@@H](NC(=O)OC)[C@@H](C)OC)[nH]c5cc4F)N3c3cc(F)c(N4CCC(c5ccc(F)cc5)CC4)c(F)c3)c(F)cc2[nH]1)[C@@H](C)OC [Compound 2] | significantly increase | 6 | 28 | – | – | – | – |
| CC(C)(C)[C@@H]1NC(=O)O[C@@H]2CCC[C@H]2OC/C=C/C(F)(F)c2nc3ccccc3nc2O[C@@H]2C[C@@H](C(=O)N[C@]3(C(=O)NS(=O)(=O)C4(C)CC4)C[C@H]3C(F)F)N(C2)C1=O [Compound 1] | significantly increase | – | – | 5.61 | 5.93 | 5 | 41 |
